# Data from publication PMC7586344, “Discovery of Novel pERK1/2- or β-Arrestin-Preferring 5-HT1A Receptor-Biased Agonists: Diversified Therapeutic-like versus Side Effect Profile” (Journal of Medicinal Chemistry, 2020).
# How the values were obtained:
# [1] = tested on: male Wistar rats; assay: Porsolt forced swimming test; type: in vivo; conditions: rat FST, 60 min before test, mean ± SEM
# Procedure: The experiments were performed on male Wistar rats (170–200 g) obtained from an accredited animal facility at the Jagiellonian University Medical College, Krakow, Poland. […] Standard laboratory food (LSM-B) and filtered water were freely available. […] Each animal was assigned randomly to treatment groups and only used once (no repeated use of animals). All the experiments were performed by two observers unaware of the treatment applied between 9:00 and 14:00 on separate groups of animals. […] All efforts were made to minimize suffering and to reduce the number of animals used in the experiments and to use only the number of animals necessary to produce reliable scientific data. Each experimental group consisted of 6–8 animals. […] The examined compounds were administered orally 60 min before tests. In antagonism experiments, WAY100635 (Tocris, UK) was administered subcutaneously 75 min before testing. Control animals received vehicle (distilled water) according to the same schedule. […] On the following day (24 h later), the rats were re-placed in the cylinder after administration of test compounds and the total duration of immobility was recorded during the 5-min test period. […] Fresh water was used for each animal.
# [2] = tested on: HepG2 cells; assay: Hepatotoxicity, HepG2 cell viability; type: cell-based, human; conditions: 72 h incubation
# [3] = Preliminary metabolic stability in rat liver microsomes; type: in vitro ADME; conditions: pH 7.4, RLMs 1 mg/mL, 50 μM compound, 37 °C
# [4] = tested on: male Wistar rats; assay: Lower lip retraction; type: in vivo; conditions: rat; for LLR score: 50 min before test, score 0-10; for ability to induce lower lip retraction (LLR), in words: p.o.
# Procedure: The experiments were performed on male Wistar rats (170–200 g) obtained from an accredited animal facility at the Jagiellonian University Medical College, Krakow, Poland. […] All efforts were made to minimize suffering and to reduce the number of animals used in the experiments and to use only the number of animals necessary to produce reliable scientific data. Each experimental group consisted of 6–8 animals.
# The examined compounds were administered orally 60 min before tests. In antagonism experiments, WAY100635 (Tocris, UK) was administered subcutaneously 75 min before testing. Control animals received vehicle (distilled water) according to the same schedule.
# Observations were made according to the method described by Kleven et al.([68]) Animals were observed individually during a 10 min period for 10 s of observation per animal. During each of these observation periods, the uninterrupted presence for at least 3 s (1) or absence (0) of LLR was recorded. This cycle was repeated 10 times over a 10 min period; thus, the incidence of a particular behavior could vary from 0 to 10.
# [5] = target: panel of 45 off-targets; conditions: highest off-target affinity, estimated from screening data
# [6] = In vitro rat plasma protein binding (ultrafiltration); type: in vitro ADME; conditions: rat serum; for fraction unbound at 30 min, 3 µg/mL / fraction unbound at 30 min, 30 µg/mL: male, Wistar, read-out: PPB ± SD (converted)
# Procedure: Fresh blood was harvested from male adult Wistar rats that were sacrificed by exsanguination. The blood was allowed to clot for 20 min at room temperature and then centrifuged at 3000 rpm for 10 min (Universal 32, Hettich, Germany). 56 and 44 dissolved in water were added in volume of 10 μL to separate glass tubes containing 1 mL aliquots of rat serum to achieve final concentrations of 3 and 30 μg/mL each. All tests were run in triplicate. After vortexing, the serum samples were incubated in a water bath at 37 °C for 30 min with gentle shaking. Following this incubation period, 100 μL of serum samples from each tube were transferred to Eppendorf tubes and frozen at −80 °C for analysis. The remaining serum was transferred into Centrifree ultrafiltration devices with Ultracel regenerated cellulose membrane (Merck, Darmstadt, Germany) and centrifuged at 1000g for 15 min (EBA III centrifuge, Hettich, Germany). The collected ultrafiltrates were frozen (−80 °C) for further analysis.
# [7] = target: T1, H1 (Homo sapiens, UniProt P35367); assay: Off-target binding screen; conditions: 1000 nM, read-out: % Inhibition of Control Specific Binding
# T1 construct: Eurofins Pharma Discovery Services (contract assay)
# T1 sequence (P35367 whole entry): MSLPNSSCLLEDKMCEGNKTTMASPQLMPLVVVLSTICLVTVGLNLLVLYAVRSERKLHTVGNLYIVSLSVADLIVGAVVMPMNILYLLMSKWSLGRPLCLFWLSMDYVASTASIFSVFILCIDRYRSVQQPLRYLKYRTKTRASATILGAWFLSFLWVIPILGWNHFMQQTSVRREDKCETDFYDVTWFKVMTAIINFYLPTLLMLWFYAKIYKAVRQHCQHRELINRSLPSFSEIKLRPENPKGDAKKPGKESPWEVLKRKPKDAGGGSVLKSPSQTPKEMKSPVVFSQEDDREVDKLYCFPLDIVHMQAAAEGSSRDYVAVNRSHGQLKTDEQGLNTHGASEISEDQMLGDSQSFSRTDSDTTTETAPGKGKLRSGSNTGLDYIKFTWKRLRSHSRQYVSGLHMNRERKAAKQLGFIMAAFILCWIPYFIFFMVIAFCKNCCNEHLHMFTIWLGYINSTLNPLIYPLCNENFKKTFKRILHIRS
# [8] = target: T2, β1 (Homo sapiens, UniProt P08588); assay: Off-target binding screen; conditions: 1000 nM, read-out: % Inhibition of Control Specific Binding
# T2 construct: Eurofins Pharma Discovery Services (contract screen)
# T2 sequence (P08588 whole entry): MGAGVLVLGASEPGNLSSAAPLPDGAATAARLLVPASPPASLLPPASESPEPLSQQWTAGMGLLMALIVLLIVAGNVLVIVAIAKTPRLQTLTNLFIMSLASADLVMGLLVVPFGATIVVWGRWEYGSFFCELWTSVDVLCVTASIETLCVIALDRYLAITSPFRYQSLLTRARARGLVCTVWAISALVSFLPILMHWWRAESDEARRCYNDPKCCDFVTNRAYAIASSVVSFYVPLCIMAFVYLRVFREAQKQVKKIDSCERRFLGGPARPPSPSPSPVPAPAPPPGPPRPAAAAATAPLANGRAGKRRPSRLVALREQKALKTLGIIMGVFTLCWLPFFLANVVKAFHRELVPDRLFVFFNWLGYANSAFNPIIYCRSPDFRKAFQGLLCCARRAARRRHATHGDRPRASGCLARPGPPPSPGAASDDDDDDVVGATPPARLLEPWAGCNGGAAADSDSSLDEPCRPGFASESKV
SMILES,Immobility time ([1]; 1.25 mg/kg p.o.),hepatotoxicity 50% viability of HepG2 cells [2],"remaining at 2 h, 50 μM [3]",LLR score ([4]; 0.312 mg/kg p.o.),LLR score ([4]; 1.25 mg/kg p.o.),"ability to induce lower lip retraction (LLR), in words [4]",affinity for some of the off-targets (pKi) [5],fu ± SD ([6]; C0 3 µg/mL),fu ± SD ([6]; C0 30 µg/mL),"fraction unbound at 30 min, 3 µg/mL ([6]; C0 3 µg/mL)","fraction unbound at 30 min, 30 µg/mL ([6]; C0 30 µg/mL)",inhibition at 1 µM [7],inhibition at 1 µM [8],Immobility time ([1]; 0.04 mg/kg p.o.),LLR score ([4]; 0.04 mg/kg p.o.)
"O=C(c1ccc(F)c(Cl)c1)N1CCC(F)(CNCCOc2cccc3[nH]ccc23)CC1 [Compound 56, (4-(((2-((1H-Indol-4-yl)oxy)ethyl)amino)methyl)-4-fluoropiperidin-1-yl)(3-chloro-4-fluorophenyl)methanone]",67.63 ± 7.83 s,>50 µM,87.4%,10 ± 0,10 ± 0,elicited a full LLR,~8,1.1 ± 0.1%,1.9 ± 0.1%,0.011,0.019,,,,
O=C(c1ccc(F)c(Cl)c1)N1CCC(F)(CNCCOc2ccccc2)CC1 [Compound 3],,>50 µM,59.2%,,,,,,,,,-9%,-8%,,
"CNc1ccccc1OCCNCC1(F)CCN(C(=O)c2ccc(F)c(Cl)c2)CC1 [Compound 44, (3-Chloro-4-fluorophenyl)(4-fluoro-4-(((2-(2-(methylamino)phenoxy)ethyl)amino)methyl)piperidin-1-yl)methanone]",,,,,,did not induce any significant LLR,,1.6 ± 0.1%,1.8 ± 0.1%,0.016,0.018,-5%,-5%,199.50 ± 12.35 s,0
